The results in this text go back to ChEMBL document CHEMBL4000252, “Discovery of N-(2-aminoethyl)-N-benzyloxyphenyl benzamides: New potent Trypanosoma brucei inhibitors” (Bioorg Med Chem, 2017).

The structures appear in SMILES notation. Calls of active or inactive are those of the source. The rule behind the calls is not given here. Where only a bound is given, the exact number is not on record here.

Data set [1] concerns Trypanosoma brucei brucei. Put plainly: Antiparasitic activity against Trypanosoma brucei brucei BF427 assessed as growth inhibition after 48 hrs by Alamar blue assay. Type of data set: functional. The following applies: BF427, 48 h. A general note: The colour change of resazurin is a common sign of viable cells or microbes.
Data set [2] concerns Liver. As to the kind of experiment: Half life in mouse liver microsomes at 1.5 uM by LC-MS analysis. Type of data set: ADME, microsome. (In general: Liver microsomes are a subcellular fraction often used to study metabolism.)
Data set [3] deals with Trypanosoma brucei rhodesiense. As to the kind of experiment: Antiparasitic activity against Trypanosoma brucei rhodesiense STIB900 infected in Swiss-Webster mouse assessed as cure rate at 50 mg/kg, bid administered via oral gavage from day 2 to 5 post infection measured after 60 days by microscopic method relative to control. Type of data set: functional.
Data set [4] deals with Liver. As to the kind of experiment: Half life in human liver microsomes at 1.5 uM by LC-MS analysis. Type of data set: ADME, microsome.
Data set [5] relates to Trypanosoma brucei brucei. As to the kind of experiment: Antiparasitic activity against Trypanosoma brucei brucei BF427 assessed as growth inhibition at 32 times EC50 pretreated for 24 hrs followed by compound washout measured after 10 days by light microscopic method. It is filed as functional.
Data set [6] in a line: Ratio of drug level in brain to plasma in mouse at 5 mg/kg, ip after 1 hr by LC-MS analysis. Type of data set: ADME, organism-based.
Data set [7] can be described thus: AUC (0 to 8 hrs) in mouse at 50 mg/kg, po by LC-MS analysis. It is filed as ADME, organism-based. The following applies: in vivo. Set-up: dose 50 mg/kg, time < 8 hr, route oral.
Data set [8] can be described thus: Cytotoxicity against human CRL8155 cells assessed as growth inhibition after 48 hrs by Alamar blue assay. The note with it: crl8155, 48 h. Type of data set: cell-based.
The subject of data set [9] is Trypanosoma brucei rhodesiense. Put plainly: Antiparasitic activity against Trypanosoma brucei rhodesiense STIB900 assessed as growth inhibition after 48 hrs by Alamar blue assay. It is filed as functional. The following applies: STIB900, 48 h.
Data set [10] deals with Cytochrome P450 3A4 (Homo sapiens, UniProt P08684). As to the kind of experiment: Inhibition of human CYP3A4. It is filed as ADME.
For data set [11], the system named is Trypanosoma brucei brucei. Put plainly: Antiparasitic activity against Trypanosoma brucei brucei BF427 assessed as growth inhibition at 16 times EC50 pretreated for 72 hrs followed by compound washout measured after 10 days by light microscopic method. Type of data set: functional.
Data set [12] can be described thus: Cmax in mouse at 50 mg/kg, po by LC-MS analysis. It is filed as ADME, organism-based. Set-up: dose 50 mg/kg, route oral. The following applies: in vivo.
Data set [13] relates to HepG2. As to the kind of experiment: Cytotoxicity against human HepG2 cells assessed as growth inhibition after 48 hrs by Alamar blue assay. Type of data set: cell-based. The note with it: hepg2, 48 h.
The test system of data set [14] is Trypanosoma brucei brucei. Put plainly: Antiparasitic activity against Trypanosoma brucei brucei BF427 assessed as growth inhibition at 16 times EC50 pretreated for 48 hrs followed by compound washout measured after 10 days by light microscopic method. Type of data set: functional.
For data set [15], the system named is Trypanosoma brucei brucei. Put plainly: Antiparasitic activity against Trypanosoma brucei brucei BF427 assessed as growth inhibition at 16 times EC50 pretreated for 96 hrs followed by compound washout measured after 10 days by light microscopic method. Type of data set: functional.
The test system of data set [16] is Trypanosoma brucei brucei. Put plainly: Antiparasitic activity against Trypanosoma brucei brucei TREU667 infected in mouse assessed as decrease in parasitemia at 50 mg/kg, bid administered via oral gavage on day 21 to 34 post infection measured on day 34 by microscopic method. It is filed as functional, organism-based.
Data set [17] deals with Trypanosoma brucei brucei. Put plainly: Antiparasitic activity against Trypanosoma brucei brucei TREU667 infected in mouse assessed as decrease in parasitemia at 50 mg/kg, bid administered via oral gavage on day 21 to 34 post infection measured on day 46 to 49 by microscopic method. It is filed as functional, organism-based.
Data set [18] concerns Trypanosoma brucei brucei. As to the kind of experiment: Antiparasitic activity against Trypanosoma brucei brucei TREU667 infected in mouse assessed as decrease in parasitemia at 50 mg/kg, bid administered via oral gavage on day 21 to 34 post infection measured on day 36 by microscopic method. Type of data set: functional, organism-based.
For data set [19], the system named is Trypanosoma brucei brucei. As to the kind of experiment: Antiparasitic activity against Trypanosoma brucei brucei TREU667 infected in mouse assessed as decrease in parasitemia at 50 mg/kg, bid administered via oral gavage on day 21 to 34 post infection measured on day 35 by microscopic method. Type of data set: functional, organism-based.
Data set [20] has as its system Trypanosoma brucei brucei. As to the kind of experiment: Antiparasitic activity against Trypanosoma brucei brucei BF427 assessed as growth inhibition at 4 times EC50 pretreated for 48 hrs followed by compound washout measured after 10 days by light microscopic method. It is filed as functional.
Data set [21] has as its system Trypanosoma brucei brucei. Put plainly: Antiparasitic activity against Trypanosoma brucei brucei BF427 assessed as growth inhibition at EC50 pretreated for 72 hrs followed by compound washout measured after 10 days by light microscopic method. It is filed as functional.
Data set [22] relates to Trypanosoma brucei brucei. As to the kind of experiment: Antiparasitic activity against Trypanosoma brucei brucei BF427 assessed as growth inhibition at EC50 pretreated for 96 hrs followed by compound washout measured after 10 days by light microscopic method. It is filed as functional.
Data set [23] has as its system Trypanosoma brucei brucei. Put plainly: Antiparasitic activity against Trypanosoma brucei brucei BF427 assessed as growth inhibition at 4 times EC50 pretreated for 24 hrs followed by compound washout measured after 10 days by light microscopic method. Type of data set: functional.
Data set [24] deals with Trypanosoma brucei brucei. Put plainly: Antiparasitic activity against Trypanosoma brucei brucei TREU667 infected in mouse assessed as decrease in parasitemia at 50 mg/kg, bid administered via oral gavage on day 21 to 34 post infection measured on day 41 to 42 by microscopic method. It is filed as functional, organism-based.
For data set [25], the system named is L6. As to the kind of experiment: Cytotoxicity against rat L6 cells assessed as growth inhibition after 48 hrs by Alamar blue assay. It is filed as cell-based. The note with it: l6, 48 h.

Sequence of Cytochrome P450 3A4 (P08684 whole entry): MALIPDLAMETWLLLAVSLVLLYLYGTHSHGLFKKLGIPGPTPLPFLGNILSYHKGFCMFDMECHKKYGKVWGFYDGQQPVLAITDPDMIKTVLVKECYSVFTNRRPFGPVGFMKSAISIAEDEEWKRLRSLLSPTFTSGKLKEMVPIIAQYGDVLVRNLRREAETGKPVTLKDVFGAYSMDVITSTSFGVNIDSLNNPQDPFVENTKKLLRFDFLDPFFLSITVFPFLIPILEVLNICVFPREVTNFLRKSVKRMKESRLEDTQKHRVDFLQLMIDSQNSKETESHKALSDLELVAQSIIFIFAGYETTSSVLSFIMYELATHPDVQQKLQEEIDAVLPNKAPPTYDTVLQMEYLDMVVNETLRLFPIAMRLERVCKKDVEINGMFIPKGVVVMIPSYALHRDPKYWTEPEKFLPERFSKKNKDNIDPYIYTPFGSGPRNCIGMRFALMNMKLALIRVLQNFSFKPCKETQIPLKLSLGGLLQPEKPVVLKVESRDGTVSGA

A word on the EC50: it is the concentration at which the effect is half-maximal. As usually defined, the AUC(0-t) is the area under the concentration-time curve up to a stated or last time point. As a reminder, the CC50 is the concentration giving 50% cytotoxicity. By IC50 is commonly meant the point on the concentration scale where inhibition reaches its midpoint. A lower IC50 goes with greater potency. The term Cmax denotes the highest concentration seen after dosing. Consider `Cl.NCCN(C(=O)c1ccc(Cl)cc1Cl)c1ccc(OCc2ccc(Cl)cc2)cc1`, for which the half-maximal effective concentration (EC50) was determined as 0.031 µM in [1] and 0.005 µM in data set [9]. Further, the t1/2 in [2] was 0.583 h; in [4], greater than 1 h. The Activity in data set [3] is 67 - 80%. In addition, the “growth inhibition (GI)” value in [5], in [11], in data set [14] and in data set [15] was “Active” in each case. Further, the BPR in data set [6] was 0.42. The compound further gave an AUC(0-t) at 8 h in data set [7] of 3.42 µM·h. Besides, the CC50 in [8] and in data set [13] was 2 µM throughout. Moreover, the IC50 in data set [10] was found to be 0.179 µM. This compound returned a Cmax in data set [12] of 0.53 µM.

As to `Cl.NCCN(C(=O)c1ccc(F)cc1C(F)(F)F)c1ccc(OCc2ccc(Cl)cc2)cc1`, the EC50 in data set [1] worked out at 0.007 µM. Further, the t1/2 in [2] and in data set [4] was greater than 1 h in each case. Further, the Activity in [3] was 67 - 80%. The result in data set [16], in data set [18] and in data set [19] was Active. In data set [6], the BPR is 0.38. In [7], this compound gave an AUC(0-t) at 8 h of 26 µM·h. The CC50 in data set [8] worked out at 3.67 µM; in [13], 7.53 µM. This compound yielded an IC50 in data set [10] of 0.01 µM. Besides, in data set [17], the result was inactive. This compound returned a Cmax in data set [12] of 4.39 µM.

On to `N=C(N)c1ccc(OCCCCCOc2ccc(C(=N)N)cc2)cc1`, for which the “growth inhibition (GI)” value in data set [20], in data set [21], in data set [22] and in data set [23] was “Active” throughout.

Regarding `Cc1cc(C)cc(COc2ccc(N(CCN)C(=O)c3ccc(Cl)cc3Cl)cc2)c1.Cl`, the EC50 in data set [1] is 0.02 µM. Besides, in [3], the Activity is recorded as 33%. Besides, the t1/2 in [4] is greater than 1 h. In data set [16], the outcome was Active. The BPR in data set [6] was found to be 0.18. The same compound had an AUC(0-t) at 8 h in data set [7] of 33.9 µM·h. The CC50 amounted to 2.45 µM in [8] and 4.1 µM in [13]. The IC50 in data set [10] amounted to 0.003 µM. For the same compound, in data set [24], the result was inactive. This compound also returned a Cmax in [12] of 5.9 µM.

Turning to `NCCN(C(=O)c1ccccc1F)c1ccc(Cl)cc1`, the EC50 in [1] came out at 3.9 µM. Also, in data set [25], the CC50 was 104 µM.
